Results: patent US12691056B2 (priority 2020, dated 2026)

Columns and labels:
[1] = cited from earlier work
[2] = system: CYP3A4 and CYP2D6 enzymes; conditions: in vitro studies; cited from earlier work
[3] = system: CYP1A1, CYP1A2, CYP2A6, CYP2B6, CYP2C8, CYP2C9, CYP2C19, or CYP2E1 enzymes; conditions: cited from earlier work
[4] = aripiprazole intramuscular depot formulation; cited from earlier work
[5] = Inter-Individual Variability (CV %)
[6] = final combined popPK model, Fixed

Compound	lower apparent clearance in CYP2D6 poor metabolizers (CYP2D6 PM subjects)	IIV on Vc [5]	IIV on deltoid IM Ka [5]	IIV on gluteal IM Ka [5]	IIV on oral Ka (Inter-Individual Variability (CV %), Fixed)	CL Apparent clearance for subjects who are not poor CYP2D6 metabolizers [6]	CLpm Apparent clearance for subjects who are poor CYP2D6 metabolizers [6]	IM Ka_BMI Effect of BMI on IH Ka: power for (BMI/28) [6]	IM Ka_male Proportional shift of IM Ka for males [6]	IMKa Gluteal IM 1st order absorption safe constant [6]	Q1 Inter-compartmental clearance 1 [6]	Q2 Inter-compartmental clearance 2 [6]	absolute oral bioavailability ([1]; tablet formulation)	enzyme for N-dealkylation [2]	enzymes for dehydrogenation and hydroxylation [2]	substrate of CYP1A1, CYP1A2, CYP2A6, CYP2B6, CYP2C8, CYP2C9, CYP2C19, or CYP2E1 enzymes [3]	share of the parent drug exposure in plasma [4]	share of aripiprazole AUC in plasma ([1]; at steady-state)
O=C1CCc2ccc(OCCCCN3CCN(c4cccc(Cl)c4Cl)CC3)cc2N1 [aripiprazole, 7-[4-[4-(2,3-dichlorophenyl)-1-piperazinyl]butoxy]-3,4-dihydrocarbostyril]	approximately 50%	2.18 (148%)	0.237 (48.9%)	0.359 (60.0%)	0.434 (65.9%)	3.71 Fixed L/hr	1.88 Fixed Lhr	−0.975 Fixed	0.346 Fixed	0.000904 h⁻¹	0.591 Fixed L/hr	28.8 Fixed L/hr	about 87%	catalyzed by CYP3A4	CYP3A4 and CYP2D6 enzymes are responsible	not a substrate		
O=c1ccc2ccc(OCCCCN3CCN(c4cccc(Cl)c4Cl)CC3)cc2[nH]1 [dehydro-aripiprazole]																	about 29%	about 40%
